For orientation: melting point means the temperature, or range, at which the solid turns liquid. `Cc1cc(C)c(-c2cn(C)c3c(O)ncnc23)c(C)c1` had a melting point of 230 to 232 °C.
`CC(C)(C)OC(=O)N1CCC(=Cc2ccc(F)cc2)CC1` yielded a melting point of 69 to 70 °C.
For `Cc1cc2c(cc1C)C(=O)C(=O)N2` the value was 217 to 218 °C; for `CCCCCCCCCOC(=O)Oc1ccc(C(=O)O)cc1`, 118 to 120 °C.
Then `CC(C)(C)[Si](C)(C)OC1CN(c2ccc(NC(=O)OCc3ccccc3)cc2F)C1`, with 91 to 93 °C.
Take `CC(C)(C)NC(=O)[C@@H]1C[C@H](N2CCOCC2)CN1C(=O)[C@@H](O)[C@H](Cc1ccccc1)NC(=O)[C@H](CC(N)=O)NC(=O)OCc1ccccc1`: the melting point lay within 115 to 117 °C.
As for `CCOC(=O)/C=C/C(C)(C)NC(=O)OC(C)(C)C`, the melting point fell in the range of 40 to 41 °C.
For `CCOC(=O)C(=O)N(CCOS(C)(=O)=O)N=Cc1ccccc1` the value was 93 to 95 °C.
Then `COc1ccc(C(O)c2cccnc2)cc1OC` (configuration not stated), with 76 to 78 °C; and `CCN1C(=O)Cc2cc3c(cc21)C(O)CO3` (configuration not stated), with 144 to 145 °C.
Then `N=C(NO)C1(c2ccccc2Br)CC1`, with 164 to 167 °C; and `O=Cc1c(Cl)[nH]c2ccccc12`, with 227 °C.
The compound `CCc1c(N)c(C(N)=O)nn1Cc1cccnn1` displayed a melting point of 177 to 185 °C.
`Cc1cc(N)nc(CCCCNC(=O)c2c(O)cccc2O)c1` showed a melting point of 158 to 159 °C.
For `O=C1N(c2ccc(Cl)cc2)C(Cl)(Cl)C2CCCCC12Cl` (configuration not stated) the value was 120 to 124 °C.
Then `COc1ccc(C2CC(n3cncn3)c3ccccc3N2)cc1` (configuration not stated), with 170 to 172 °C.
With `COc1cccc2c1OC(CO)CC2` (configuration not stated), the melting point lay in the range of 57 to 58 °C.
For `Nc1c(Cl)cnc(OCCO)c1Cl` the value was 77.5 to 81 °C.
For `COc1ccc(CNc2nc(CCCCCCC(=O)O)nc3sc(Cl)cc23)cc1Cl` the value was 137 °C; for `CN(C)c1ccccc1SCc1noc(CSc2ccc(Br)cc2)n1`, 78 °C; for `CS(=O)(=O)c1ccc(-c2cnn(-c3ccc(F)cc3)c(=O)c2Oc2ccc(F)cc2)cc1`, 83 to 85 °C.
Then `CC(=O)OCC1OC(n2c(Cl)nc3cc(Cl)ccc32)C(OC(C)=O)C1OC(C)=O` (configuration not stated), with 98 to 100 °C; and `C=CCOc1ccc(-c2cc(C(=O)NCc3ccc(OC(C)(C)C(=O)O)c(C)c3)nn2C)cc1`, with 138 °C.
Take `CCc1c(OC)cc2c(c1O)C(=O)C[C@H]1CCN(C)C[C@@H]21` (relative stereo): the melting point was in the range of 221 to 223 °C.
For the compound `O=C1C(=Cc2ccoc2)CCc2cc(OCCn3ccnc3)ccc21`, the melting point was in the range of 116 to 117 °C.
Take `COC(=O)c1ncccc1C(=O)c1ccc(-n2ccnc2)cc1`: the melting point lay within 150 to 157 °C.
`O=C1N(CC2CCCO2)c2ccc(F)cc2C12COc1cc3c(cc12)CCO3` (configuration not stated) came in with a melting point of 167 to 169 °C.
The compound `COC(=O)[C@H](C)N(C(=O)[C@H](CC(C)C)NC(=O)OC(C)(C)C)c1ccc(F)cc1` showed a melting point of 121 to 122 °C.
Consider `CCCCCCCCCCCCCCCCCCNC(=O)OCC(CN)COC` (configuration not stated), for which the melting point fell in the range of 84 to 85 °C.
The compound `O=C(C[C@@H](C(=O)OCc1ccccc1)n1c2ccccc2c2ccccc21)OCCOC(=O)c1ccc(NC(=O)OCc2ccccc2)cc1` showed a melting point of 58 °C.
Then `CC(=O)N1CCCC2(Cc3cc([N+](=O)[O-])ccc3O2)C1` (configuration not stated), with 165 to 167 °C; and `CCC1=Nc2cccc(Cl)c2C(=O)C1`, with 236 to 239 °C; and `N=C(NC1CC1)NN1CCc2cc(Cl)ccc21`, with 146 to 149 °C.
Then `CCOC(=O)c1cn(C(c2ccccc2)(c2ccccc2)c2ccccc2)nn1`, with 201 to 203 °C; and `CCCCCCc1nc2c(N)nc3ccccc3c2n1CCCCNS(=O)(=O)c1ccccc1`, with 84.8 to 85.4 °C.
Then `CCOc1ccc(C(F)(F)F)cc1-c1cccn2nc(Nc3ccc4c(c3)CCN(CCS(C)(=O)=O)CC4)nc12`, with 105 to 109 °C.
Compound `CC(C)=NN=C(c1ccc(Cl)cc1)c1ccc(OS(C)(=O)=O)cc1` displayed a melting point of 148 to 149 °C.
For `Cc1cc2c(=O)n(CCN(Cc3ccc4c(c3)NC(=O)C(C)(C)C(=O)N4CC3CC3)Cc3cccnc3C)ccc2o1` the value was 138 to 143 °C; for `Fc1ccc2nc(Cl)ccc2c1`, 99 to 101 °C.
Then `O=C(c1cccs1)c1cnn2c(Cl)ccnc12`, with 148 to 150 °C; and `COC(=O)CC(=O)NCc1ccccc1`, with 51 to 54 °C.
Compound `C[C@@H](O)COc1c(N)ccc(F)c1F` gave a melting point of 47 to 48 °C.
Turning to `CCCc1c(OCCCCCCc2cc(O)c(O)cc2F)ccc(C(=O)O)c1O`, the melting point lay in the range of 110 to 111 °C.
In turn, `CN(C)c1ccc(Cl)cc1[N+](=O)[O-]` showed a melting point of 54 to 55 °C.
For `Nc1ncc(-c2cccc(Cl)c2Cl)nc1C(=O)Nc1cccnc1` the value was 239 to 241 °C.
Then `Cc1cc2c(NCc3ccc4c(c3)OCO4)nc(-n3ccnc3)nc2s1`, with 162 °C; and `C=CCc1cc2c(c(CC=C)c1O)CCC(=O)N2CCCNC(N)=O`, with 203 to 204 °C.
Then `O=C(Nc1ccc(-n2cnc(Cl)c2Cl)cc1)Nc1ccc(C(F)(F)F)cc1`, with 221 to 224 °C.
For the compound `CN(C)CCNc1ccc(NCCCCC(=O)NOCc2ccccc2)c2c1C(=O)c1ccccc1C2=O`, the melting point lay within 146 to 148 °C.
Then `COc1cccc(S(=O)(=O)Nc2nccnc2OC)c1`, with 133 to 134 °C.
Compound `CCOC(=O)c1cnoc1-c1ccc(Cl)c(Cl)c1` displayed a melting point of 108 to 110 °C.
`CCC(NS(=O)(=O)c1ccc(F)cc1)P(=O)(Oc1ccccc1)Oc1ccccc1` (configuration not stated) yielded a melting point of 148 to 151 °C.
For `COc1cc(-c2c(Cl)c(CCl)nc3sc4c(c23)CCN(Cc2ccccc2)C4)ccc1OC(C)C` the value was 173 to 174 °C.
For `N#Cc1cccc(C=Cc2cccc(F)c2)n1` the value was 111 to 112 °C.
Then `Cc1ccc(-n2nc(C(F)F)cc2-c2ccc(S(C)(=O)=O)cc2)cc1Cl`, with 137 to 139 °C; and `COC(=O)C1Cc2c(OC)cccc2N1S(=O)(=O)c1ccc(-c2ccc(F)cc2F)cc1` (configuration not stated), with 162 °C.
`COc1ccccc1N1CCN(CCCNC(=O)c2cccc3c(=O)c(C)c(-c4cccc5ccccc45)oc23)CC1` displayed a melting point of 134 to 138 °C.
Then `Cc1cccc2nc(NC(=O)c3ccc(C(C)(C)C(=O)O)cc3)cn12`, with 282 to 283 °C; and `CCOC(=O)c1c(Cl)nc(CC)n1Cc1ccc2oc(-c3ccccc3NC(=O)OC(C)(C)C)c(Br)c2c1`, with 73 to 74 °C.
For `CCCc1cc(=O)c(C(=O)OC)c(C)[nH]1` the value was 171 to 172 °C; for `O=C1Nc2ccc(I)cc2C1=NNC(=O)c1ccc(Oc2ccc(CN3CCOCC3)cc2)cc1`, 252 °C; for `CCCc1c(OCCCOc2cc(OCc3ccccc3)c(-c3ccc(F)cc3)cc2CC)cccc1Oc1cc(F)ccc1C(=O)OC`, 77 to 78 °C.
Then `Nc1ccc(-c2ccc(N)cc2Br)c(Br)c1`, with 151 to 153 °C; and `CC(=O)Nc1c(C(=O)c2cccc(OCc3ccccc3)c2)[nH]c2cc(Cl)ccc12`, with 159 to 161 °C.
`Cc1cc2cccc(Br)c2nc1C` yielded a melting point of 78 °C.
For `Cc1cc(C#N)cc(C(=O)c2c(C(C)C)c(=O)[nH]c(=O)n2CC(C)C)c1` the value was 200 to 201 °C.
Then `Nc1cc(S(=O)(=O)CCO)ccc1Nc1ccc(N)c(S(=O)(=O)O)c1`, with 254 °C; and `O=C(O)c1ccc(N2CC(=O)N(S(=O)(=O)c3ccc(Cl)cc3)C2=O)cc1`, with 271 to 272 °C; and `CC(C)c1cccc(C(C)C)c1NC(=O)NCC1(S(=O)(=O)c2ccccc2)CCCC1`, with 124 °C.
Then `CCCNC(=O)c1cccc(-c2cc(-c3ccccc3O)nc(NC(=O)c3cccs3)c2C#N)c1`, with 245 to 246 °C.
In turn, `Cn1c(=O)c(-c2ccc(Cl)cc2Cl)cc2c3cc(-c4nc(CN5CCCC5)cs4)ccc3n(C)c21` yielded a melting point of 222 to 226 °C.
For `FC(F)(F)c1cccc2c(-c3ccccc3)c(-c3ccccc3)cnc12` the value was 181 to 183 °C; for `NS(=O)(=O)c1ccc(-c2nc(-c3cnn4c(C(F)(F)F)cc(-c5ccc(C(F)(F)F)cc5)nc34)no2)cc1`, 292 °C.
Regarding `Cc1cc2cc(CN3CCCC3)cnc2cc1NC(=O)c1ccc(-c2ccccc2)c(F)c1`, the melting point lay in the range of 167 to 170 °C.
Then `O=C1C(c2ccccc2)=CC2CCCCCC12` (configuration not stated), with 218 °C; and `OC[C@@H]1CC[C@H]2CN(c3ncccn3)CCN2C1` (relative stereo), with 135 to 136 °C; and `O=C(O)CCCc1cc2nc(Cl)ccc2n1S(=O)(=O)c1ccc2ncsc2c1`, with 178 °C.
`CC(=O)Oc1ccc(N=c2scc(-c3ccc(Cl)c(S(=O)(=O)N(C)C)c3)n2C)cc1` registered a melting point of 173 to 174 °C.
Then `O=C(OCCCCCCc1ccc(OCc2ccc(Cl)cc2)cc1)c1cccnc1`, with 66 to 67 °C; and `COc1ccc2[nH]c(C)c(C=O)c2c1`, with 190 to 191 °C; and `Nc1nc2c(s1)CCN(C/C=C\c1cccnc1)CC2`, with 125 to 126 °C.
In the case of `O=C(O)CCCC(CCCNS(=O)(=O)c1ccc(Cl)cc1)CCc1cccnc1` (configuration not stated), the melting point lay in the range of 83 to 85 °C.
For `Cc1cc(C#N)c(=O)[nH]c1C` the value was 258 to 263 °C; for `CSc1snc(OCC#CI)c1C#N`, 145 to 146 °C.
Then `O=C1c2cc(Cl)ccc2-c2ccccc2CN1CCBr`, with 94 to 97 °C.
For `CC(C)c1onc(-c2c(Cl)cccc2Cl)c1COc1ccc(N(C)Cc2ccc(C(=O)O)cc2)c(C(F)(F)F)n1` the value was 96.1 to 97.1 °C; for `Cn1c(COc2ccc(CC3SC(=O)NC3=O)cc2)nc2ccc(Oc3cccc(NC(=O)Nc4ccccc4C(F)(F)F)c3)cc21` (configuration not stated), 161 to 164 °C.

The record behind these values is a melting point compilation (Tetko et al.; mined from patent text by program, amines drawn as free bases though some values may be those of a salt).
